{
  "source": "patent US20240335414A1",
  "about": "“SPECIALIZED COMBINATIONS FOR MENTAL DISORDERS OR MENTAL ENHANCEMENT” (TACTOGEN INC, priority 2021, published 2024)",
  "origin": "cited, not measured here",
  "key": {"[1]": {"settings": "MDMA arm, first of two Phase 3 trials, MDMA-assisted therapy"}, "5-HT1B": {"target": "5-HT1B (Homo sapiens, UniProt P28222)", "sequence (P28222 whole entry, species assumed)": "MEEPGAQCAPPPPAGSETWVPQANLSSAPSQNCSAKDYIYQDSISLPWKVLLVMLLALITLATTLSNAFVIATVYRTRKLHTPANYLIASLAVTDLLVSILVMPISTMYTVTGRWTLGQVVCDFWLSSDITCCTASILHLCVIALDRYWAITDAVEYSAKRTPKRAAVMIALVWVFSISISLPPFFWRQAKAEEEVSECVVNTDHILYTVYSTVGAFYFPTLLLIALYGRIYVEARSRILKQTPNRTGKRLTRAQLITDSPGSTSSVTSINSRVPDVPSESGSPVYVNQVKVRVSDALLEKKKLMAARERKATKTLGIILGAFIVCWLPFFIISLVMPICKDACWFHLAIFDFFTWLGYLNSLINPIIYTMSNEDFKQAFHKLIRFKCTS"}, "[2]": {"settings": "pooled Phase 2 clinical trials"}},
  "note": "pEC50: −log10 of the molar value.",
  "data": [
    {"smiles": "CNC(C)Cc1ccc2c(c1)OCO2", "note": "(stereo not drawn) [MDMA, 3,4-methylenedioxymethamphetamine]", "values": [
      {"measurement": "participants no longer diagnosable with PTSD", "setting": "[1]", "result": "two-thirds"},
      {"measurement": "binding to the 5-HT1B", "setting": "5-HT1B", "result": "does not bind"},
      {"measurement": "nausea, proportion of participants", "setting": "[2]; 29 of 72 participants", "result": 40.3, "unit": "%"},
      {"measurement": "anxiety, proportion of participants", "setting": "[2]; 52 of 72 participants", "result": 72.2, "unit": "%"},
      {"measurement": "pEC50", "setting": "neuritogenesis; read-out: EC50 for promoting neuritogenesis", "result": 8.13},
      {"measurement": "Emax for promoting neuritogenesis, compared with ketamine", "setting": "neuritogenesis; relative to ketamine", "result": "approximately twice that of ketamine"}
    ]}
  ]
}
